Data as given in patent US6428820B2, “Extracts of Hypericum perforatum and formulations containing them” (Indena S.p.A., priority 1999, dated 2002).
Converted amounts (≈) assume the structure as drawn.

Columns and labels:
[1] = tested on: serotonin (5-HT) uptake; assay: Inhibition of 3H 5-HT (serotonin) uptake; format: biochemical; settings: inhibition of 3H 5-HT uptake
[2] = tested on: dopamine (DA) uptake; settings: inhibition of 3H DA uptake

Cc1cc(O)c2c(=O)c3c(O)cc(O)c4c5c(O)cc(O)c6c(=O)c7c(O)cc(CO)c8c1c2c(c34)c(c65)c78 [Pseudo-hypericin]
IC50 3H-5 HT uptake [1]: 27.0 ± 1.1020 µg/mL (≈ 51.9 µM) | IC50 3H DA uptake [2]: 1.40 ± 0.13 µg/mL (≈ 2.69 µM)

Hyperforin
IC50 3H-5 HT uptake [1]: 4.75 ± 0.79 µg/mL | IC50 3H DA uptake [2]: 1.54 ± 0.23 µg/mL
